{"source": "patent US20250213534A1", "about": "“5-METHOXY-N,N-[…][…] THE TREATMENT OF COGNITIVE DYSFUNCTION” (GH RESEARCH IRELAND LIMITED, priority 2022, published 2025)", "key": {"[1]": {"system": "Escherichia coli (WP2 uvrA pKM101)", "assay": "Bacterial mutation test", "type": "cell-based", "conditions": "up to 5000 μg/plate; absence and presence of rat liver S-9", "protocol": "(§1) These conditions included treatments at concentrations up to 5000 μg/plate (the maximum recommended concentration according to current regulatory guidelines), in the absence and in the presence of a rat liver metabolic activation system (S-9)."}, "[2]": {"system": "Salmonella typhimurium (TA98, TA100, TA1535 and TA1537)", "assay": "Bacterial mutation test", "type": "cell-based", "conditions": "up to 5000 μg/plate; absence and presence of rat liver S-9", "protocol": "as §1"}, "[3]": {"assay": "Pharmacokinetics after single dose via inhalation (LC-MS/MS)", "type": "in vivo, human", "conditions": "after 3 hours; whole dose range 6, 12, 18 mg"}, "[4]": {"system": "patients with postpartum depression (PPD)", "assay": "Clinical trial of 5-MeO-DMT via inhalation (individualized dosing regimen) in postpartum depression", "conditions": "n=1", "protocol": "The single-arm, open-label clinical trial will involve 15 adult female patients with clinically diagnosed postpartum depression (PPD).\nThe second dose (12 mg) will only be administered if: • a. A peak experience (total score of ⋅75) has not been achieved following the 6 mg dose, and • b. The 6 mg dose was safe and well-tolerated according to the investigator, • c. Any psychoactive effects (PsE) of the prior dose have subsided, and • d. Pre-dose vital parameters and forced expiratory volume in one second (FEV1) are in normal range, or if outside of the normal range, are not clinically significant according to the investigator. • 3. Similarly, a third dose (18 mg) will only be administered if: • a. A peak experience (total score of ⋅75) has not been achieved following the 12 mg dose, and • b. The 12 mg dose was safe and well-tolerated according to the investigator, and • c. Any PsE of the prior dose have subsided, and • d. Pre-dose vital parameters and forced expiratory volume in one second (FEV1) are in normal range, or if outside of the normal range, are not clinically significant according to the investigator.\nThe patients will be assessed for a peak psychedelic experience (based on a patient-scored visual analogue scale, the PE scale), sedation, and other endpoints after dosing. Follow-up visits are planned for Day 1, and Day 7 after the dosing day.\nThe following criteria must be met by all patients considered for clinical trial participation: • 1. Is female and in the age range between 18 and 45 years (inclusive) at screening. • 2. Has a body mass index (BMI) in the range of 18.5 and 35 kg/m^2 (inclusive) at screening. • 3. Meets the trial criteria for PPD as assessed by a trial psychiatrist or registered psychologist: • a. Diagnosis of Major Depressive Disorder without psychotic features, confirmed by the Mini-International Neuropsychiatric Interview (MINI), with peri-partum onset that began no earlier than gestation and no later than the first 4 weeks postpartum. • b. Has a Montgomery-Åsberg Depression Rating Scale (MADRS) total score of equal to or greater than 28 at screening and pre-dose on Day 0. • 6. […] Patients must have a negative pregnancy test at screening and on the pre-test day (Day −1). • 5. Is willing to delay start of other antidepressant or anxiety medication until after the end of the trial at Day 7 and agrees to keep any psychotherapy unchanged during the trial."}}}
{"smiles": "COc1ccc2[nH]cc(CCN(C)C)c2c1", "note": "[5-MeO-DMT]", "values": [{"measurement": "Induction of mutation", "setting": "[1]", "value": "did not induce mutation"}, {"measurement": "Induction of mutation", "setting": "[2]", "value": "did not induce mutation"}, {"measurement": "Detectability in the plasma", "setting": "[3]", "value": "no longer detectable"}, {"measurement": "Inhalation-related adverse events", "setting": "[4]", "value": "no inhalation-related adverse events"}, {"measurement": "MADRS remission (MADRS total score equal or less than 10)", "setting": "[4]", "value": "fulfilled"}, {"measurement": "MADRS response (at least 50% improvement from baseline)", "setting": "[4]", "value": "fulfilled"}, {"measurement": "Reported adverse events (cramping left abdominal pain and headache, Day 0)", "setting": "[4]", "value": "mild, short-lasting and resolved spontaneously"}, {"measurement": "BIMF total score improvement", "setting": "[4]; Day 7, from 92 to 105", "value": 14, "unit": "%"}, {"measurement": "BIMF item 2 score: I feel rested", "setting": "[4]; Day 7, Day 0 0", "value": 2}, {"measurement": "BIMF item 19 score: As time goes on, I am getting better at taking care of my baby", "setting": "[4]; Day 7, Day 0 0", "value": 1}, {"measurement": "BIMF item 18 score: Anxiety or worry often interferes with my mothering ability", "setting": "[4]; Day 7, Day 0 2", "value": 5}, {"measurement": "BIMF item 16 score: I worry about how other people judge me (as a mother)", "setting": "[4]; Day 7, Day 0 3", "value": 5}, {"measurement": "BIMF item 13 score: I am taking good care of my physical needs (eating, showering, etc)", "setting": "[4]; Day 7, Day 0 4", "value": 5}, {"measurement": "BIMF item 4 score: My baby and I understand each other", "setting": "[4]; Day 7, Day 0 5", "value": 5}, {"measurement": "BIMF item 5 score: I am able to relax and enjoy time with my baby", "setting": "[4]; Day 7, Day 0 5", "value": 6}, {"measurement": "BIMF item 9 score: I am getting enough encouragement from other people", "setting": "[4]; Day 7, Day 0 5", "value": 6}, {"measurement": "BIMF item 10 score: I trust my own feelings (instincts) when it comes to taking care of my baby", "setting": "[4]; Day 7, Day 0 5", "value": 6}, {"measurement": "BIMF item 11 score: I take a little time each week to do something for myself", "setting": "[4]; Day 7, Day 0 5", "value": 6}, {"measurement": "BIMF item 15 score: My baby and I are getting into a routine", "setting": "[4]; Day 7, Day 0 5", "value": 6}, {"measurement": "BIMF item 17 score: I am able to take care of my baby and my other responsibilities", "setting": "[4]; Day 7, Day 0 5", "value": 5}, {"measurement": "BIMF item 1 score: I am a good mother", "setting": "[4]; Day 7, Day 0 6", "value": 6}, {"measurement": "BIMF item 3 score: I am comfortable with the way I've chosen to feed my baby (either bottle or breast, or both)", "setting": "[4]; Day 7, Day 0 6", "value": 6}, {"measurement": "BIMF item 6 score: There are people in my life that I can trust to care for my baby when I need a break", "setting": "[4]; Day 7, Day 0 6", "value": 6}, {"measurement": "BIMF item 8 score: I am getting enough adult interaction", "setting": "[4]; Day 7, Day 0 6", "value": 6}, {"measurement": "BIMF item 12 score: I am taking good care of my baby's physical needs (feedings, changing diapers, doctor's appointments)", "setting": "[4]; Day 7, Day 0 6", "value": 6}, {"measurement": "BIMF item 14 score: I make good decisions about my baby's health and well being", "setting": "[4]; Day 7, Day 0 6", "value": 6}, {"measurement": "BIMF item 20 score: I am satisfied with the job I am doing as a new mother", "setting": "[4]; Day 7, Day 0 6", "value": 5}, {"measurement": "BIMF item 1 Δ (Day 7)", "setting": "[4]; Day 7 vs Day 0", "value": 0}, {"measurement": "BIMF item 2 Δ (Day 7)", "setting": "[4]; Day 7 vs Day 0", "value": 2}, {"measurement": "BIMF item 3 Δ (Day 7)", "setting": "[4]; Day 7 vs Day 0", "value": 0}, {"measurement": "BIMF item 4 Δ (Day 7)", "setting": "[4]; Day 7 vs Day 0", "value": 0}, {"measurement": "BIMF item 5 Δ (Day 7)", "setting": "[4]; Day 7 vs Day 0", "value": 1}, {"measurement": "BIMF item 6 Δ (Day 7)", "setting": "[4]; Day 7 vs Day 0", "value": 0}, {"measurement": "BIMF item 7 Δ (Day 7)", "setting": "[4]; Day 7 vs Day 0", "value": 0}, {"measurement": "BIMF item 8 Δ (Day 7)", "setting": "[4]; Day 7 vs Day 0", "value": 0}, {"measurement": "BIMF item 9 Δ (Day 7)", "setting": "[4]; Day 7 vs Day 0", "value": 1}, {"measurement": "BIMF item 10 Δ (Day 7)", "setting": "[4]; Day 7 vs Day 0", "value": 1}, {"measurement": "BIMF item 11 Δ (Day 7)", "setting": "[4]; Day 7 vs Day 0", "value": 1}, {"measurement": "BIMF item 12 Δ (Day 7)", "setting": "[4]; Day 7 vs Day 0", "value": 0}, {"measurement": "BIMF item 13 Δ (Day 7)", "setting": "[4]; Day 7 vs Day 0", "value": 1}, {"measurement": "BIMF item 14 Δ (Day 7)", "setting": "[4]; Day 7 vs Day 0", "value": 0}, {"measurement": "BIMF item 15 Δ (Day 7)", "setting": "[4]; Day 7 vs Day 0", "value": 1}, {"measurement": "BIMF item 16 Δ (Day 7)", "setting": "[4]; Day 7 vs Day 0", "value": 2}, {"measurement": "BIMF item 17 Δ (Day 7)", "setting": "[4]; Day 7 vs Day 0", "value": 0}, {"measurement": "BIMF item 18 Δ (Day 7)", "setting": "[4]; Day 7 vs Day 0", "value": 3}, {"measurement": "BIMF item 19 Δ (Day 7)", "setting": "[4]; Day 7 vs Day 0", "value": 1}, {"measurement": "BIMF item 20 Δ (Day 7)", "setting": "[4]; Day 7 vs Day 0", "value": "−1"}, {"measurement": "Time to clinical remission after administration", "setting": "[4]; IDR 6 mg followed by 12 mg", "value": "≤ 2", "unit": "h"}]}
